Measured values reported in US20230295157A1, “3-(1H-IMIDAZOL-2-YL)-2,3,8,8A-TETRAHYDROINDOLIZIN-5(1H)-ONE DERIVATIVES USEFUL AS FACTOR XIA INHIBITORS” (JANSSEN PHARMACEUTICA NV, priority 2020, published 2023).
pIC50: −log10 of the molar value. Where two headings read alike, the source gives them in different places.

Key:
[1] = target: Factor XIa (Homo sapiens (Human), UniProt P03951); assay: Factor XIa inhibition assay (FLINT) utilizing a fluorophore-quencher pair peptide substrate; assay type: biochemical; details: 30 min preincubation, kinetic reads over 30 min, read-out: FXIa Kin Inh IC50
In short: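 FXIa ([…]) preincubated 30 min with compound (11-point 3-fold dilution, top 100 nM, 2% DMSO), then 15 μM quenched FXI Arg146-based peptide added; Tris pH 7.5, CaCl2, BSA, CHAPS. Fluorescence 485/520 nm read kinetically every 5 min over 30 min at RT; IC50 by 4-parameter fit.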

[2] = target: human plasma kallikrein (Homo sapiens (Human), UniProt P03952); assay: Kallikrein inhibition assay (FLINT) utilizing a quenched AMC peptide substrate; assay type: biochemical; details: 30 min preincubation, kinetic reads over 30 min, Z-Gly-Pro-Arg-AMC substrate 50 μM; read-out: Kallikrein Kin Inh IC50
In short: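 Enzyme (2 nM final) pre-incubated 30 min at room temperature with compound (11-point, 3-fold, top 1 μM, 2% DMSO), then 50 μM Z-Gly-Pro-Arg-AMC added in Tris pH 7.5 buffer. Kinetic fluorescence 340/440 nm every 5 min over 30 min; IC50 from 4-parameter logistic fit.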

[3] = 5Fam-KLTRAETV-K5Tamra substrate 15 μM
[4] = 5Fam-[…]-K5Tamra substrate 15 μM

Chain of human plasma kallikrein (P03952 391-638): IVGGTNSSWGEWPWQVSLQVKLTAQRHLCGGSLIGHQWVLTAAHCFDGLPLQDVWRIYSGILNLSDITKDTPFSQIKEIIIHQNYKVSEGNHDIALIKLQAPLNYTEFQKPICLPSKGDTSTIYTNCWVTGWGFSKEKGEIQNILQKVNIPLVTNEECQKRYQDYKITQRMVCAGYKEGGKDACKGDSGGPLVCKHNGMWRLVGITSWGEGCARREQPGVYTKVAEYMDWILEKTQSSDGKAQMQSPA
Chain of human plasma kallikrein (P03952 20-390 partner): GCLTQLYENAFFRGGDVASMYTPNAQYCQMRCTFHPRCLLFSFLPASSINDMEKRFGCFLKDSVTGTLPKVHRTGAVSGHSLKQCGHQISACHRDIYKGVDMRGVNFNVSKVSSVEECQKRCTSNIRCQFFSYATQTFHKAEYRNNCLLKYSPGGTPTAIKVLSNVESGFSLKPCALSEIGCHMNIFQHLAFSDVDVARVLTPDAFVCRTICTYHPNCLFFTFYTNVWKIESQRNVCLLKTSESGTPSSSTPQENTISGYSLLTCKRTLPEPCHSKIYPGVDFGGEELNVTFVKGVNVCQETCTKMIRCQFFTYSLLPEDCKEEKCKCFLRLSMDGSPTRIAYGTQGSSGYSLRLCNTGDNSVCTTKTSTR
Chain of Factor XIa (P03951 388-625): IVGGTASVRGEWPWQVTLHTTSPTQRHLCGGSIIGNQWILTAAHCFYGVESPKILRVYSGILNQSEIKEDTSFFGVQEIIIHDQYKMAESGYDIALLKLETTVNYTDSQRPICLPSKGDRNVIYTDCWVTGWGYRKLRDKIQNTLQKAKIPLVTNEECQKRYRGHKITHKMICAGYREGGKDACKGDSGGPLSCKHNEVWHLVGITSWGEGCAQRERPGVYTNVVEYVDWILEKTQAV
Chain of Factor XIa (P03951 19-387 partner): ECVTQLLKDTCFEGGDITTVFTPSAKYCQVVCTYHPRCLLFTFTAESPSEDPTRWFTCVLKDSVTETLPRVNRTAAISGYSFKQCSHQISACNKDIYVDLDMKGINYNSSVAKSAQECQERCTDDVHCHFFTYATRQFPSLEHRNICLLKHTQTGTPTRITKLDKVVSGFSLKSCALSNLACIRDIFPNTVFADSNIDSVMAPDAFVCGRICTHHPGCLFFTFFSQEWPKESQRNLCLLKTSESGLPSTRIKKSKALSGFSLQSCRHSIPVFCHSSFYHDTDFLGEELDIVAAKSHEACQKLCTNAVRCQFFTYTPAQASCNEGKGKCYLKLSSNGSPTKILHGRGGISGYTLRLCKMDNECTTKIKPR

Structure (SMILES)	pIC50 [1, 3]	pIC50 [2]	pIC50 [1, 4]
CC(=O)NCc1nccc(-c2cnc([C@@H]3CC[C@@H]4CC(c5c(-n6cnnn6)ccc(Cl)c5F)=CC(=O)N43)[nH]2)c1F [Example 13, N-[[4 [2-[(3S,8aR)-7-[3-Chloro-2-fluoro-6-(tetrazol-1-yl)phenyl]-5-oxo-2,3,8,8a-tetrahydro-1H-indolizin-3-yl]-1H-imidazol-5-yl]-3-fluoro-2-pyridyl]methyl]acetamide]	8.38	7.16	–
O=C1C=C(c2c(-n3cnnn3)ccc(Cl)c2F)C[C@H]2CC[C@@H](c3ncc(-c4ccc5[nH]ccc5c4)[nH]3)N12 [Example 14, (3S,8aR)-3-(5-(1H-indol-5-yl)-1H-imidazol-2-yl)-7-(3-chloro-2-fluoro-6-(1H-tetrazol-1-yl)phenyl)-2,3,8,8a-tetrahydroindolizin-5(1H)-one]	8.42	8.19	–
Nc1cc(-c2cnc([C@@H]3CC[C@@H]4CC(c5c(-n6cnnn6)ccc(Cl)c5F)=CC(=O)N43)[nH]2)c(Cl)cn1 [Example 15, (3S,8aR)-3-[5-(2-Amino-5-chloro-4-pyridyl)-1H-imidazol-2-yl]-7-[3-chloro-2-fluoro-6-(tetrazol-1-yl)phenyl]-2,3,8,8a-tetrahydro-1H-indolizin-5-one]	8.43	7.56	–
CC(=O)N[C@H](C)c1ccc(-c2cnc([C@@H]3CCC4CC(c5c(-n6cnnn6)ccc(Cl)c5F)=CC(=O)N43)[nH]2)cc1 (stereo partly drawn) [Example 16, N-[(1R)-1-[4-[2-[(3S)-7-[3-Chloro-2-fluoro-6-(tetrazol-1-yl)phenyl]-5-oxo-2,3,8,8a-tetrahydro-1H-indolizin-3-yl]-1H-imidazol-5-yl]phenyl]ethyl]acetamide]	7.21	6.48	–
O=C1C=C(c2c(-n3cnnn3)ccc(Cl)c2F)C[C@H]2CC[C@@H](c3ncc(-c4ccncc4F)[nH]3)N12 [Example 17, (3S,8aR)-7-[3-Chloro-2-fluoro-6-(tetrazol-1-yl)phenyl]-3-[5-(3-fluoro-4-pyridyl)-1H-imidazol-2-yl]-2,3,8,8a-tetrahydro-1H-indolizin-5-one]	8.52	7.54	–
CC(=O)Nc1cc(-c2cnc([C@@H]3CCC4CC(c5c(-n6cnnn6)ccc(Cl)c5F)=CC(=O)N43)[nH]2)c(Cl)cn1 (stereo partly drawn) [Example 18, N-[5-Chloro-4 [2-[(3S)-7-[3-Chloro-2-fluoro-6-(tetrazol-1-yl)phenyl]-5-oxo-2,3,8,8a-tetrahydro-1H-indolizin-3-yl]-1H-imidazol-5-yl]-2-pyridyl]acetamide]	7.09	6.33	–
Cc1c(-c2cnc([C@@H]3CCC4CC(c5c(-n6cnnn6)ccc(Cl)c5F)=CC(=O)N43)[nH]2)ccnc1N (stereo partly drawn) [Example 21, (3S)-3-(5-(2-Amino-3-methylpyridin-4-yl)-1H-imidazol-2-yl)-7-(3-chloro-2-fluoro-6-(1H-tetrazol-1-yl)phenyl)-2,3,8,8a-tetrahydroindolizin-5(1H)-one]	8.20	7.18	–
O=C1C=C(c2c(OC(F)F)ccc(Cl)c2F)C[C@H]2CC[C@@H](c3nc(F)c(-c4ccnc(CO)c4F)[nH]3)N12 [Example 23, (3S,8aR)-7-(3-Chloro-6-(difluoromethoxy)-2-fluorophenyl)-3-(4-fluoro-5-(3-fluoro-2-(hydroxymethyl)pyridin-4yl)-1H-imidazol-2-yl)-2,3,8,8a-tetrahydroindolizin-5(1H)-one]	7.30	6.58	–
O=C1C=C(c2c(-n3cnnn3)ccc(Cl)c2F)C[C@H]2CC[C@@H](c3ncc(-c4cnc5[nH]ccc5c4)[nH]3)N12 [Example 24, (3S,8aR)-3-(5-(1H-pyrrolo[2,3-b]pyridin-5-yl)-1H-imidazol-2-yl)-7-(3-chloro-2-fluoro-6-(1H-tetrazol-1-yl)phenyl)-2,3,8,8a-tetrahydroindolizin-5(1H)-one]	7.13	7.04	–
O=C1C=C(c2c(OC(F)F)ccc(Cl)c2F)C[C@H]2CC[C@@H](c3ncc(-c4ccnc(CO)c4F)[nH]3)N12 [Example 25, (3S,8aR)-7-(3-Chloro-6-(difluoromethoxy)-2-fluorophenyl)-3-(5-(3-fluoro-2-(hydroxymethyl)pyridin-4-yl)-1H-imidazol-2-yl)-2,3,8,8a-tetrahydroindolizin-5(1H)-one]	< 7.00	6.32	–
O=C1C=C(c2c(C(F)F)ccc(Cl)c2F)C[C@H]2CC[C@@H](c3ncc(-c4ccnc(CO)c4F)[nH]3)N12 [Example 26, (3S,8aR)-7-(3-Chloro-6-(difluoromethyl)-2-fluorophenyl)-3-(5-(3-fluoro-2-(hydroxymethyl)pyridin-4-yl)-1H-imidazol-2-yl)-2,3,8,8a-tetrahydroindolizin-5(1H)-one]	–	6.57	< 7.00
O=C1C=C(c2c(C(F)F)ccc(Cl)c2F)C[C@H]2CC[C@@H](c3nc(F)c(-c4ccnc(CO)c4F)[nH]3)N12 [Example 27, (3S,8aR)-7-(3-Chloro-6-(difluoromethyl)-2-fluorophenyl)-3-(4-fluoro-5-(3-fluoro-2-(hydroxymethyl)pyridin-4-yl)-1H-imidazol-2-yl)-2,3,8,8a-tetrahydroindolizin-5(1H)-one]	< 7.00	6.93	–
Cc1nc2ccc(-c3cnc([C@@H]4CC[C@@H]5CC(c6c(-n7cnnn7)ccc(Cl)c6F)=CC(=O)N54)[nH]3)cc2[nH]1 [Example 30, (3S,8aR)-7-(3-chloro-2-fluoro-6-(1H-tetrazol-1-yl)phenyl)-3-(5-(2-methyl-1H-benzo[d]imidazol-6-yl)-1H-imidazol-2-yl)-2,3,8,8a-tetrahydroindolizin-5(1H)-one]	8.68	8.36	–
O=C1C=C(c2c(-n3cnnn3)ccc(Cl)c2F)C[C@H]2CC[C@@H](c3nc(-c4ccnc5[nH]ccc45)c[nH]3)N12 [Example 32, (3S,8aR)-3-(4-(1H-pyrrolo[2,3-b]pyridin-4-yl)-1H-imidazol-2-yl)-7-(3-chloro-2-fluoro-6-(1H-tetrazol-1-yl)phenyl)-2,3,8,8a-tetrahydroindolizin-5(1H)-one]	8.82	8.54	–
[2H]C1([2H])C[C@@H](c2ncc(-c3ccnc(CO)c3F)[nH]2)N2C(=O)C=C(c3c(-n4cnnn4)ccc(Cl)c3F)C([2H])([2H])[C@]21[2H] [Example 33, (3S,8aR)-7-(3-Chloro-2-fluoro-6-(1H-tetrazol-1-yl)phenyl)-3-(5-(3-fluoro-2-(hydroxymethyl)pyridin-4-yl)-1H-imidazol-2-yl)-2,3,8,8a-tetrahydroindolizin-5(1H)-one-1,1,8,8,8a-d5]	–	7.48	8.41
O=C(O)c1nccc(-c2[nH]c([C@@H]3CC[C@@H]4CC(c5c(-n6cc(C(F)(F)F)nn6)ccc(Cl)c5F)=CC(=O)N43)nc2F)c1F [Example 34, 4-(2-((3S,8aR)-7-(3-Chloro-2-fluoro-6-(4-(trifluoromethyl)-1H-1,2,3-triazol-1-yl)phenyl)-5-oxo-1,2,3,5,8,8a-hexahydroindolizin-3-yl)-4-fluoro-1H-imidazol-5-yl)-3-fluoropicolinic acid]	9.22	7.48	–
O=C1C=C(c2c(-n3cnnn3)ccc(Cl)c2F)C[C@H]2CC[C@@H](c3nc(-c4ccnc5[nH]ncc45)c[nH]3)N12 [Example 38, (3S,8aR)-3-(4-(1H-pyrazolo[3,4-b]pyridin-4-yl)-1H-imidazol-2-yl)-7-(3-chloro-2-fluoro-6-(1H-tetrazol-1-yl)phenyl)-2,3,8,8a-tetrahydroindolizin-5(1H)-one]	8.68	8.59	–
